Results: patent publication US20210101881A1 (Ancureall Pharmaceutical (Shanghai) Co., Ltd., priority 2018, published 2021)

system: MOLM13 cells; experiment: Growth inhibition of CDK9-positive cell line MOLM13 in vitro (CCK8/MTT assay); assay type: cell-based, human; details: Homo sapiens, MOLM-13, read-out: IC50 of the compound for inhibiting cell growth, MOLM13 cells

| Structure (SMILES) | IC50 [nM] |
| --- | --- |
| CN1CCN(c2cccc(Nc3ncc(Cl)c(-n4cc(C(N)=O)c5ccccc54)n3)c2)CC1 [Compound 118, 1-{5-chloro-2-[3-(4-methyl-piperazin-1-yl)-phenylamino]-pyrimidin-4-yl}-1H-indole-3-carboxamide] | 1 to 10 |

same assay, conditions: Homo sapiens, MOLM-13; MOLM13 cells, cultured 3 to 6 days, CCK8; read-out: IC50 of the compound for inhibiting cell growth, MOLM13 cells

| Structure (SMILES) | IC50 [nM] |
| --- | --- |
| CN(C)CCCN(C)c1ccc(Nc2nccc(-n3cc(C(N)=O)c4ccccc43)n2)cc1Cl [Compound 83, 1-(2-{3-chloro-4-[(3-dimethylamino-propyl)-methyl-amino]-phenylamino}-pyrimidin-4-yl)-1H-indole-3-carboxamide] | 10 to 100 |
| CN(C)CCN(C)c1ccc(Nc2ncc(F)c(-n3cc(C(N)=O)c4ccccc43)n2)cc1 [Compound 84, 1-(2-{4-[(2-dimethylamino-ethyl)-methyl-amino]-phenylamino}-5-fluoro-pyrimidin-4-yl)-1H-indole-3-carboxamide] | 1 to 10 |
| CN(C)CCN(C)c1ccc(Nc2ncc(Cl)c(-n3cc(C(N)=O)c4ccccc43)n2)cc1 [Compound 85, 1-(5-chloro-2-{4-[(2-dimethylamino-ethyl)-methyl-amino]-phenylamino}-pyrimidin-4-yl)-1H-indole-3-carboxamide] | 1 to 10 |
| COc1cc(Nc2ncc(F)c(-n3cc(C(N)=O)c4ccccc43)n2)ccc1N(C)CCN(C)C [Compound 86, 1-(2-{4-[(2-dimethylamino-ethyl)-methyl-amino]-3-methoxy-phenylamino}-5-fluoro-pyrimidin-4-yl)-1H-indole-3-carboxamide] | 1 to 10 |
| COc1cc(Nc2ncc(Cl)c(-n3cc(C(N)=O)c4ccccc43)n2)ccc1N(C)CCN(C)C [Compound 87, 1-(2-{4-[(2-dimethylamino-ethyl)-methyl-amino]-3-methoxy-phenylamino}-5-chloro-pyrimidin-4-yl)-1H-indole-3-carboxamide] | 1 to 10 |
| CN(CCN1CCCC1)c1ccc(Nc2nccc(-n3cc(C(N)=O)c4ccccc43)n2)cc1 [Compound 90, 1-(2-{4-[methyl-(2-pyrrolidin-1-ylethyl)-amino]-phenylamino}-pyrimidin-4-yl)-1H-indole-3-carboxamide] | 1 to 10 |
| COc1cc(Nc2nccc(-n3cc(C(N)=O)c4ccccc43)n2)ccc1N(C)CCN1CCCC1 [Compound 91] | 1 to 10 |
| CN(CCN1CCCC1)c1ccc(Nc2nccc(-n3cc(C(N)=O)c4ccccc43)n2)cc1F [Compound 92, 1-(2-{3-fluoro-4-[methyl-(2-pyrrolidin-1-yl-ethyl)-amino]-phenylamino}-pyrimidin-4-yl)-1H-indole-3-carboxamide] | 100 to 1000 |
| CN(CCN1CCCC1)c1ccc(Nc2ncc(F)c(-n3cc(C(N)=O)c4ccccc43)n2)cc1 [Compound 93, 1-(5-fluoro-2-{4-[methyl-(2-pyrrolidin-1-yl-ethyl)-amino]-phenylamino}-pyrimidin-4-yl)-1H-indole-3-carboxamide] | 1 to 10 |
| CN(CCN1CCCC1)c1ccc(Nc2ncc(Cl)c(-n3cc(C(N)=O)c4ccccc43)n2)cc1 [Compound 94, 1-(5-chloro-2-{4-[methyl-(2-pyrrolidin-1-yl-ethyl)-amino]-phenylamino}-pyrimidin-4-yl)-1H-indole-3-carboxamide] | 1 to 10 |
| CN(CCN1CCCC1)c1ccc(Nc2ncc(F)c(-n3cc(C(N)=O)c4ccccc43)n2)cc1F [Compound 95, 1-(5-fluoro-2-{3-fluoro-4-[methyl-(2-pyrrolidin-1-yl-ethyl)-amino]-phenylamino}-pyrimidin-4-yl)-1H-indole-3-carboxamide] | 10 to 100 |
| Cc1cc(Nc2ncc(F)c(-n3cc(C(N)=O)c4ccccc43)n2)ccc1N(C)CCN1CCCC1 [Compound 96, 1-(5-fluoro-2-{3-methyl-4-[methyl-(2-pyrrolidin-1-yl-ethyl)-amino]-phenylamino}-pyrimidin-4-yl)-1H-indole-3-carboxamide] | 1 to 10 |
| Cc1cc(Nc2ncc(Cl)c(-n3cc(C(N)=O)c4ccccc43)n2)ccc1N(C)CCN1CCCC1 [Compound 97, 1-(5-chloro-2-{3-methyl-4-[methyl-(2-pyrrolidin-1-yl-ethyl)-amino]-phenylamino}-pyrimidin-4-yl)-1H-indole-3-carboxamide] | 1 to 10 |
| COc1cc(Nc2ncc(F)c(-n3cc(C(N)=O)c4ccccc43)n2)ccc1N(C)CCN1CCCC1 [Compound 98, 1-(5-fluoro-2-{3-methoxy-4-[methyl-(2-pyrrolidin-1-yl-ethyl)-amino]-phenylamino}-pyrimidin-4-yl)-1H-indole-3-carboxamide] | 1 to 10 |
| COc1cc(Nc2ncc(Cl)c(-n3cc(C(N)=O)c4ccccc43)n2)ccc1N(C)CCN1CCCC1 [Compound 99, 1-(5-chloro-2-{3-methoxy-4-[methyl-(2-pyrrolidin-1-yl-ethyl)-amino]-phenylamino}-pyrimidin-4-yl)-1H-indole-3-carboxamide] | 1 to 10 |
| COc1cc(Nc2ncc(C)c(-n3cc(C(N)=O)c4ccccc43)n2)ccc1N(C)CCN1CCCC1 [Compound 100, 1-(2-{3-methoxy-4-[methyl-(2-pyrrolidin-1-yl-ethyl)-amino]-phenylamino}-5-methyl-pyrimidin-4-yl)-1H-indole-3-carboxamide] | 1 to 10 |
| CNC(=O)c1cn(-c2ccnc(Nc3ccc(N4CCNCC4)cc3)n2)c2ccccc12 [Compound 101, 1-[2-(4-piperazin-1-yl-phenylamino)-pyrimidin-4-yl]-1H-indole-3-carboxmethylamide] | 100 to 1000 |

| Structure (SMILES) | IC50 [nM] |
| --- | --- |
| CNC(=O)c1cn(-c2ccnc(Nc3ccc(N4CCNCC4)cc3Cl)n2)c2ccccc12 [Compound 102, 1-[2-(2-chloro-4-piperazin-1-yl-phenylamino)-pyrimidin-4-yl]-1H-indole-3-carboxmethylamide] | > 1000 |
| CNC(=O)c1cn(-c2ccnc(Nc3ccc(N4CCNCC4)c(Cl)c3)n2)c2ccccc12 [Compound 103, 1-[2-(3-chloro-4-piperazin-1-yl-phenylamino)-pyrimidin-4-yl]-1H-indole-3-carboxmethylamide] | 100 to 1000 |
| CNC(=O)c1cn(-c2ccnc(Nc3ccc(C4CCN(C)CC4)cc3)n2)c2ccccc12 [Compound 104, 1-{2-[4-(1-methyl-piperidin-4-yl)-phenylamino]-pyrimidin-4-yl}-1H-indole-3-carboxmethylamide] | 10 to 100 |
| CNC(=O)c1cn(-c2ccnc(Nc3ccc(C4CCNCC4)cc3)n2)c2ccccc12 [Compound 105, 1-[2-(4-piperidin-4-yl-phenylamino)-pyrimidin-4-yl]-1H-indole-3-carboxmethylamide] | 10 to 100 |
| CNC(=O)c1cn(-c2ccnc(Nc3cccc(N4CCNCC4)c3)n2)c2ccccc12 [Compound 107, 1-[2-(3-piperazin-1-yl-phenylamino)-pyrimidin-4-yl]-1H-indole-3-carboxmethylamide] | 10 to 100 |
| CNC(=O)c1cn(-c2ccnc(Nc3ccc(S(N)(=O)=O)cc3)n2)c2ccccc12 [Compound 108, 1-[2-(4-sulfamoyl-phenylamino)-pyrimidin-4-yl]-1H-indole-3-carboxmethylamide] | > 1000 |
| CN(C)CCN(C)c1cccc(Nc2nccc(-n3cc(C(N)=O)c4ccccc43)n2)c1 [Compound 110, 1-(2-{3-[(2-dimethylamino-ethyl)-methyl-amino]-phenylamino}-pyrimidin-4-yl)-1H-indole-3-carboxamide] | 1 to 10 |
| NC(=O)c1cn(-c2ccnc(Nc3cccc(N4CCNCC4)c3)n2)c2ccccc12 [Compound 111, 1-[2-(3-piperazin-1-yl-phenylamino)-pyrimidin-4-yl]-1H-indole-3-carboxamide] | 1 to 10 |
| CN1CCCN(c2cccc(Nc3nccc(-n4cc(C(N)=O)c5ccccc54)n3)c2)CC1 [Compound 112, 1-{2-[3-(4-methyl-[1,4]homopiperazin-1-yl)-phenylamino]-pyrimidin-4-yl}-1H-indole-3-carboxamide] | 1 to 10 |
| CN1CCN(c2cccc(Nc3nccc(-n4cc(C(N)=O)c5ccccc54)n3)c2)CC1 [Compound 113, 1-{2-[3-(4-methyl-piperazin-1-yl)-phenylamino]-pyrimidin-4-yl}-1H-indole-3-carboxamide] | < 1 |
| CN1CCN(c2cc(F)cc(Nc3nccc(-n4cc(C(N)=O)c5ccccc54)n3)c2)CC1 [Compound 114, 1-{2-[3-fluoro-5-(4-methyl-piperazin-1-yl)-phenylamino]-pyrimidin-4-yl}-1H-indole-3-carboxamide] | 1 to 10 |
| CN1CCN(c2cc(Nc3ncc(F)c(-n4cc(C(N)=O)c5ccccc54)n3)ccc2F)CC1 [Compound 116, 1-{5-fluoro-2-[4-fluoro-3-(4-methyl-piperazin-1-yl)-phenylamino]-pyrimidin-4-yl}-1H-indole-3-carboxamide] | 10 to 100 |
| Cc1ccc(Nc2ncc(F)c(-n3cc(C(N)=O)c4ccccc43)n2)cc1N1CCN(C)CC1 [Compound 117, 1-{5-fluoro-2-[4-methyl-3-(4-methyl-piperazin-1-yl)-phenylamino]-pyrimidin-4-yl}-1H-indole-3-carboxamide] | 10 to 100 |
| CN1CCN(c2cc(Nc3ncc(Cl)c(-n4cc(C(N)=O)c5ccccc54)n3)ccc2F)CC1 [Compound 119, 1-{5-chloro-2-[4-fluoro-3-(4-methyl-piperazin-1-yl)-phenylamino]-pyrimidin-4-yl}-1H-indole-3-carboxamide] | 10 to 100 |
| CN1CCN(c2cc(Nc3ncc(Cl)c(-n4cc(C(N)=O)c5ccccc54)n3)ccc2Cl)CC1 [Compound 120, 1-{5-chloro-2-[4-chloro-3-(4-methyl-piperazin-1-yl)-phenylamino]-pyrimidin-4-yl}-1H-indole-3-carboxamide] | 10 to 100 |
| Cc1ccc(Nc2ncc(Cl)c(-n3cc(C(N)=O)c4ccccc43)n2)cc1N1CCN(C)CC1 [Compound 121, 1-{5-chloro-2-[4-methyl-3-(4-methyl-piperazin-1-yl)-phenylamino]-pyrimidin-4-yl}-1H-indole-3-carboxamide] | 10 to 100 |

same assay, conditions: MOLM13 cells, cultured 3 to 6 days, CCK8; read-out: IC50 of the compound for inhibiting cell growth, MOLM13 cells

| Structure (SMILES) | IC50 [nM] |
| --- | --- |
| CNC(=O)c1cn(-c2ccnc(Nc3cccc(N4CCN(C)CC4)c3)n2)c2ccccc12 [Compound 106, 1-{2-[3-(4-methyl-piperazin-1-yl)-phenylamino]-pyrimidin-4-yl}-1H-indole-3-carboxmethylamide] | 10 to 100 |
